Changes are numbered by the printed parent chain.
What was measured:
mouse TRPV3-6M = biological target: T1, mouse TRPV3-6M (Mus musculus, UniProt Q8K424, A560T/F522S/H523E/L557M/Q580E/W521Y); format: cell-based; details: for channel activation (current response): RTx 100 nM, 2-APB 3 mM, room temperature, ±60 mV
T1 construct: expressed in transfected cells; host or cells: Xenopus laevis oocytes
T1 sequence (Q8K424 1-791 W521Y/F522S/H523E/L557M/A560T/Q580E): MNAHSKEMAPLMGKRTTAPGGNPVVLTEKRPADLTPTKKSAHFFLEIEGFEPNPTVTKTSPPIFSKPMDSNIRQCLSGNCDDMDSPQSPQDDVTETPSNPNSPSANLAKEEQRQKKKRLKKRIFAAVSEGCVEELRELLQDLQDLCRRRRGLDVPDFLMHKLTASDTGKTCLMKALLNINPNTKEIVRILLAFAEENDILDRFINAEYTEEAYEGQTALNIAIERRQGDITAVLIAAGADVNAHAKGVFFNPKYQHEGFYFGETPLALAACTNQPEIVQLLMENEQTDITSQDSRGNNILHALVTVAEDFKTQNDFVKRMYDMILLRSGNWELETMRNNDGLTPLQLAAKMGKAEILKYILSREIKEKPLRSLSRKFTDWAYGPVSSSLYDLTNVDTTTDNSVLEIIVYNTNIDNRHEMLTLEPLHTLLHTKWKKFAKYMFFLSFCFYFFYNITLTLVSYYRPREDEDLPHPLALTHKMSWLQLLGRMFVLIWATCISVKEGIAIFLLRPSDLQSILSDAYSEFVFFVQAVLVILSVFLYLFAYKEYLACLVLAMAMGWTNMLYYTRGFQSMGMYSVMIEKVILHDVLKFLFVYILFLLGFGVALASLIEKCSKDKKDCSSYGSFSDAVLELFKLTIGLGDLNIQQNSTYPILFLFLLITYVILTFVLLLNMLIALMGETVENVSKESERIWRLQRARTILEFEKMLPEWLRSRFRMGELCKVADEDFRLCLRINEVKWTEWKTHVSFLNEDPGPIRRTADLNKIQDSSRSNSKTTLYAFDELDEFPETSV
Experimental: (§1) All channel constructs were expressed in Xenopus laevis oocytes and studied using the two-electrode voltage clamp technique (TEVC) following 1–4 days of incubation after cRNA injection. The animal care and experimental procedures were performed in accordance with the Guide for the Care and Use of Laboratory Animals and were approved by the Animal Care and Use Committee of the National Institute of Neurological Disorders and Stroke (Animal protocol number 1253–17). Oocytes were removed surgically and incubated with agitation for 1 hr in a solution containing (in mM) 82.5 NaCl, 2.5 KCl, 1 MgCl2, 5 HEPES, pH 7.6 (with NaOH), and collagenase (2 mg/ml; Worthington Biochemical, Lakewood, NJ). Defolliculated oocytes were injected with cRNA for each of the constructs and incubated at 17°C in a solution containing (in mM) 96 NaCl, 2 KCl, 1 MgCl2, 1.8 CaCl2, 5 HEPES, pH 7.6 (with NaOH), and gentamicin (50 μg/ml, GIBCO-BRL, Gaithersburg, MD). Oocyte membrane voltage was controlled using an OC-725C oocyte clamp (Warner Instruments, Hamden, CT). Data were filtered at 1–3 kHz and digitized at 20 kHz using pClamp software (Molecular Devices, Sunnyvale, CA) and a Digidata 1440A digitizer (Axon Instruments). Microelectrode resistances were 0.1–1 MΩ when filled with 3 M KCl. For recording TRP channel currents, the external recording solution contained (in mM) 100 KCl, 10 HEPES, pH 7.6 (with KOH). Experiments were performed at room temperature (~22°C), except as indicated otherwise. […] Current time courses were obtained by stepping membrane voltage every 2 s from a holding potential of 0 mV to either −60 or +60 mV for 100 ms, and plotting the mean steady-state current at the end of each voltage step as a function of total recording time. I-V relations were obtained similarly, but voltage was stepped every 2 s to a different value, in 10 mV increments and starting at −60 mV.
(§2) For temperature-activation experiments, calcium-activated chloride currents were minimized by using calcium-free solution containing 30 µM Caccinh-A01 and recording at negative membrane voltages. Heat stimuli were achieved by passing the external recording solution through glass capillary spirals immersed in a water bath maintained at about 70°C, and recordings were performed during constant perfusion with temperature measured using a thermistor (TA-29, Warner Instruments) located close to the cell. The thermistor was connected to the digitizer via a temperature controller (TC-324B, Warner Instruments) ([Zhang et al., 2018]). Oocytes injected with the various constructs were only studied if un-injected oocytes from the same batch contained a low density of endogenous temperature-sensitive currents at negative membrane voltages. For delivering cold stimuli, the external solution was passed through glass capillary spirals that were immersed in an ice bath. The mean I vs T relations were calculated by automatically binning each of the recordings in temperature intervals of 2°C, and averaging a single data point within each interval per cell. All data analysis was carried out using Igor Pro 6.3 (Wavemetrics, Portland, OR). Q10 values were obtained from Q10 = 10^10 x m, where m is the slope of linear fits to normalized log(current) vs temperature relations (not shown) over temperature intervals ~ 20–34°C or 38 – 45°C ([Zhang et al., 2018]).

WT mouse TRPV3 = biological target: T2, WT mouse TRPV3 (Mus musculus, UniProt Q8K424); format: cell-based
T2 construct: expressed in transfected cells; host or cells: Xenopus laevis oocytes (cRNA injection, pGEM-HE vector)
T2 sequence (Q8K424 1-791): T1 sequence (Q8K424 1-791 W521Y/F522S/H523E/L557M/A560T/Q580E) with Y521W, S522F, E523H, M557L, T560A, E580Q
Experimental: as §1, §2

| SMILES | channel activation (current response) (mouse TRPV3-6M) | channel activation (current response) (WT mouse TRPV3; 2-APB 3 mM, room temperature) | s (slope) of Hill fit, 2-APB concentration-response (WT mouse TRPV3; -60 mV) | EC50 (WT mouse TRPV3; -60 mV, room temperature, Hill fit, read-out: apparent affinity (EC50) for activation by 2-APB) [µM] | channel activation by RTx after 2-APB pre-stimulation (mouse TRPV3-6M; RTx 100 nM after short stimulation with saturating 2-APB (3 mM)) | channel activation by RTx together with heating (mouse TRPV3-6M; RTx 100 nM with short heating pulse, temperatures slightly above room temperature) | channel activation by RTx after 2-APB pre-stimulation (WT mouse TRPV3; RTx 100 nM after short stimulation with 2-APB (3 mM)) | channel activation by RTx together with heating (WT mouse TRPV3; RTx 100 nM with heating) |
| --- | --- | --- | --- | --- | --- | --- | --- | --- |
| NCCOB(c1ccccc1)c1ccccc1 [2-APB, 2-aminoethoxydiphenyl borate] | robust responses | robust responses | 2.63 | 464 ± 12 |  |  |  |  |
| C=C(C)[C@]12C[C@@H](C)[C@@]34O[C@](Cc5ccccc5)(O[C@@H]1[C@@H]3C=C(COC(=O)Cc1ccc(O)c(OC)c1)C[C@]1(O)C(=O)C(C)=C[C@@H]41)O2 [RTx, resiniferatoxin] | insensitive |  |  |  | robust activation | prominent activation | did not activate | did not elicit any response |
